Measured values reported in PubChem BioAssay AID1963841 (Molecular Pharmacology Branch, DTP, NCI, 2024).

Tested on: 439559-082-T-J2-PDC spheroid viability
Experiment: Anticancer human tumor 439559-082-T-J2-PDC patient-derived colon adenocarcinoma cell line growth inhibition [POLQ]
Conditions: spheroids with HUVEC and MSC; for IC50: curve of first compound; for viability, T/C: stronger effect = lower value
How it was run: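 Complex spheroid viability model combining PDC tumour cells with endothelial (HUVEC) and MSC stromal cells. Novobiocin, ART-558 or RP6685 were tested singly and in combination with standard and investigational anticancer drugs. Each was titrated in half-log steps from near clinical Cmax, or from 10 microM where Cmax was unknown.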

[1] = second compound 0.0316 µM, first compound 0.0316 µM
[2] = second compound 0.0316 µM, first compound 0.1 µM
[3] = second compound 0.0316 µM, first compound 0.316 µM
[4] = second compound 0.0316 µM, first compound 1 µM
[5] = second compound 0.0316 µM, first compound 3.16 µM
[6] = second compound 0.0316 µM, first compound 10 µM
[7] = second compound 0.1 µM, first compound 0.0316 µM
[8] = second compound 0.1 µM, first compound 0.1 µM
[9] = second compound 0.1 µM, first compound 0.316 µM
[10] = second compound 0.1 µM, first compound 1 µM
[11] = second compound 0.1 µM, first compound 3.16 µM
[12] = second compound 0.1 µM, first compound 10 µM
[13] = second compound 0.316 µM, first compound 0.0316 µM
[14] = second compound 0.316 µM, first compound 0.1 µM
[15] = second compound 0.316 µM, first compound 0.316 µM
[16] = second compound 0.316 µM, first compound 1 µM
[17] = second compound 0.316 µM, first compound 3.16 µM
[18] = second compound 0.316 µM, first compound 10 µM
[19] = second compound 1 µM, first compound 0.0316 µM
[20] = second compound 1 µM, first compound 0.1 µM
[21] = second compound 1 µM, first compound 0.316 µM
[22] = second compound 1 µM, first compound 1 µM
[23] = second compound 1 µM, first compound 3.16 µM
[24] = second compound 1 µM, first compound 10 µM
[25] = second compound 3.16 µM, first compound 0.0316 µM
[26] = second compound 3.16 µM, first compound 0.1 µM
[27] = second compound 3.16 µM, first compound 0.316 µM
[28] = second compound 3.16 µM, first compound 1 µM
[29] = second compound 3.16 µM, first compound 3.16 µM
[30] = second compound 3.16 µM, first compound 10 µM
[31] = second compound 10 µM, first compound 0.0316 µM
[32] = second compound 10 µM, first compound 0.1 µM
[33] = second compound 10 µM, first compound 0.316 µM
[34] = second compound 10 µM, first compound 1 µM
[35] = second compound 10 µM, first compound 3.16 µM
[36] = second compound 10 µM, first compound 10 µM
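Further: spheroids exposed to compounds for seven days before readout.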
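Wherever viability, T/C is given: 100% = DMSO vehicle control viability.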

CC(=O)O[C@H]1C(=O)[C@@]2(C)[C@H]([C@H](OC(=O)c3ccccc3)[C@]3(O)C[C@H](OC(=O)[C@H](O)[C@@H](NC(=O)c4ccccc4)c4ccccc4)C(C)=C1C3(C)C)[C@]1(OC(C)=O)CO[C@@H]1C[C@@H]2O + COC1C(OC(N)=O)C(O)C(Oc2ccc3c(O)c(NC(=O)c4ccc(O)c(CC=C(C)C)c4)c(=O)oc3c2C)OC1(C)C
IC50 (second compound 0.0316 µM): 1.05 µM | IC50 (second compound 0.1 µM): 1.48 µM | IC50 (second compound 0.316 µM): 1.38 µM | IC50 (second compound 1 µM): 1.5 µM | IC50 (second compound 3.16 µM): 1.28 µM | IC50 (second compound 10 µM): 1.53 µM | viability, T/C (second compound 0.0316 µM, first compound 0.00949 µM): 87.2% | viability, T/C (second compound 0.0316 µM, first compound 0.03 µM): 90.8% | viability, T/C (second compound 0.0316 µM, first compound 0.0949 µM): 78.8% | viability, T/C (second compound 0.0316 µM, first compound 0.3 µM): 77% | viability, T/C (second compound 0.0316 µM, first compound 0.949 µM): 49.9% | viability, T/C (second compound 0.0316 µM, first compound 3 µM): 39.4% | viability, T/C (second compound 0.1 µM, first compound 0.00949 µM): 90.8% | viability, T/C (second compound 0.1 µM, first compound 0.03 µM): 88.4% | viability, T/C (second compound 0.1 µM, first compound 0.0949 µM): 80.6% | viability, T/C (second compound 0.1 µM, first compound 0.3 µM): 75.3% | viability, T/C (second compound 0.1 µM, first compound 0.949 µM): 57.1% | viability, T/C (second compound 0.1 µM, first compound 3 µM): 37.4% | viability, T/C (second compound 0.316 µM, first compound 0.00949 µM): 93.5% | viability, T/C (second compound 0.316 µM, first compound 0.03 µM): 89.6% | viability, T/C (second compound 0.316 µM, first compound 0.0949 µM): 80.4% | viability, T/C (second compound 0.316 µM, first compound 0.3 µM): 71% | viability, T/C (second compound 0.316 µM, first compound 0.949 µM): 56.5% | viability, T/C (second compound 0.316 µM, first compound 3 µM): 37.1% | viability, T/C (second compound 1 µM, first compound 0.00949 µM): 90.1% | viability, T/C (second compound 1 µM, first compound 0.03 µM): 87.2% | viability, T/C (second compound 1 µM, first compound 0.0949 µM): 79.3% | viability, T/C (second compound 1 µM, first compound 0.3 µM): 73% | viability, T/C (second compound 1 µM, first compound 0.949 µM): 57.8% | viability, T/C (second compound 1 µM, first compound 3 µM): 38.5% | viability, T/C (second compound 3.16 µM, first compound 0.00949 µM): 90.3% | viability, T/C (second compound 3.16 µM, first compound 0.03 µM): 83.3% | viability, T/C (second compound 3.16 µM, first compound 0.0949 µM): 82.3% | viability, T/C (second compound 3.16 µM, first compound 0.3 µM): 69.1% | viability, T/C (second compound 3.16 µM, first compound 0.949 µM): 53.2% | viability, T/C (second compound 3.16 µM, first compound 3 µM): 40.4% | viability, T/C (second compound 10 µM, first compound 0.00949 µM): 90.8% | viability, T/C (second compound 10 µM, first compound 0.03 µM): 80.1% | viability, T/C (second compound 10 µM, first compound 0.0949 µM): 80.5% | viability, T/C (second compound 10 µM, first compound 0.3 µM): 74.8% | viability, T/C (second compound 10 µM, first compound 0.949 µM): 55% | viability, T/C (second compound 10 µM, first compound 3 µM): 40.2%

COc1cc(C2c3cc4c(cc3C(OC3OC5COC(C)OC5C(O)C3O)C3COC(=O)C23)OCO4)cc(OC)c1O (stereo not drawn) + COC1C(OC(N)=O)C(O)C(Oc2ccc3c(O)c(NC(=O)c4ccc(O)c(CC=C(C)C)c4)c(=O)oc3c2C)OC1(C)C
IC50 (second compound 0.0316 µM): > 10 µM | IC50 (second compound 0.1 µM): > 10 µM | IC50 (second compound 0.316 µM): > 10 µM | IC50 (second compound 1 µM): > 10 µM | IC50 (second compound 3.16 µM): > 10 µM | IC50 (second compound 10 µM): > 10 µM | viability, T/C [1]: 94.7% | viability, T/C [2]: 97.2% | viability, T/C [3]: 102% | viability, T/C [4]: 98% | viability, T/C [5]: 90% | viability, T/C [6]: 76.8% | viability, T/C [7]: 108% | viability, T/C [8]: 108% | viability, T/C [9]: 102% | viability, T/C [10]: 90.7% | viability, T/C [11]: 92.7% | viability, T/C [12]: 72.9% | viability, T/C [13]: 102% | viability, T/C [14]: 105% | viability, T/C [15]: 91% | viability, T/C [16]: 98.6% | viability, T/C [17]: 89.5% | viability, T/C [18]: 69.8% | viability, T/C [19]: 102% | viability, T/C [20]: 94.7% | viability, T/C [21]: 98.6% | viability, T/C [22]: 100% | viability, T/C [23]: 87.1% | viability, T/C [24]: 71.5% | viability, T/C [25]: 101% | viability, T/C [26]: 101% | viability, T/C [27]: 99.1% | viability, T/C [28]: 94.5% | viability, T/C [29]: 91.4% | viability, T/C [30]: 73.1% | viability, T/C [31]: 100% | viability, T/C [32]: 103% | viability, T/C [33]: 100% | viability, T/C [34]: 92.4% | viability, T/C [35]: 86.8% | viability, T/C [36]: 71.7%

COc1cccc2c1C(=O)c1c(O)c3c(c(O)c1C2=O)CC(O)(C(=O)CO)CC3OC1CC(N)C(O)C(C)O1 (stereo not drawn) + COC1C(OC(N)=O)C(O)C(Oc2ccc3c(O)c(NC(=O)c4ccc(O)c(CC=C(C)C)c4)c(=O)oc3c2C)OC1(C)C
IC50 (second compound 0.0316 µM): 9.87 µM | IC50 (second compound 0.1 µM): > 10 µM | IC50 (second compound 0.316 µM): 6.36 µM | IC50 (second compound 1 µM): 9.5 µM | IC50 (second compound 3.16 µM): 7.79 µM | IC50 (second compound 10 µM): 7.69 µM | viability, T/C [1]: 94.1% | viability, T/C [2]: 102% | viability, T/C [3]: 88.1% | viability, T/C [4]: 70% | viability, T/C [5]: 64.5% | viability, T/C [6]: 47.9% | viability, T/C [7]: 105% | viability, T/C [8]: 108% | viability, T/C [9]: 82.9% | viability, T/C [10]: 68.2% | viability, T/C [11]: 59.9% | viability, T/C [12]: 49.6% | viability, T/C [13]: 97.7% | viability, T/C [14]: 98.8% | viability, T/C [15]: 77.3% | viability, T/C [16]: 70.2% | viability, T/C [17]: 59.7% | viability, T/C [18]: 44.3% | viability, T/C [19]: 98.8% | viability, T/C [20]: 104% | viability, T/C [21]: 84.7% | viability, T/C [22]: 65.8% | viability, T/C [23]: 56.1% | viability, T/C [24]: 47.7% | viability, T/C [25]: 104% | viability, T/C [26]: 98.9% | viability, T/C [27]: 85.2% | viability, T/C [28]: 66.4% | viability, T/C [29]: 61.8% | viability, T/C [30]: 46.2% | viability, T/C [31]: 95.3% | viability, T/C [32]: 105% | viability, T/C [33]: 85.9% | viability, T/C [34]: 67.5% | viability, T/C [35]: 61.4% | viability, T/C [36]: 45.4%

O=c1[nH]cc(F)c(=O)[nH]1 + COC1C(OC(N)=O)C(O)C(Oc2ccc3c(O)c(NC(=O)c4ccc(O)c(CC=C(C)C)c4)c(=O)oc3c2C)OC1(C)C
IC50 (second compound 0.0316 µM): > 10 µM | IC50 (second compound 0.1 µM): > 10 µM | IC50 (second compound 0.316 µM): > 10 µM | IC50 (second compound 1 µM): > 10 µM | IC50 (second compound 3.16 µM): > 10 µM | IC50 (second compound 10 µM): > 10 µM | viability, T/C [1]: 92.1% | viability, T/C [2]: 94.8% | viability, T/C [3]: 80.5% | viability, T/C [4]: 74.8% | viability, T/C [5]: 72.9% | viability, T/C [6]: 70.1% | viability, T/C [7]: 103% | viability, T/C [8]: 99.7% | viability, T/C [9]: 85.9% | viability, T/C [10]: 72.3% | viability, T/C [11]: 69.8% | viability, T/C [12]: 70.1% | viability, T/C [13]: 108% | viability, T/C [14]: 97.5% | viability, T/C [15]: 83.4% | viability, T/C [16]: 74.1% | viability, T/C [17]: 72.8% | viability, T/C [18]: 66.8% | viability, T/C [19]: 103% | viability, T/C [20]: 96.7% | viability, T/C [21]: 79.9% | viability, T/C [22]: 75.5% | viability, T/C [23]: 68.2% | viability, T/C [24]: 66.9% | viability, T/C [25]: 97.8% | viability, T/C [26]: 98.3% | viability, T/C [27]: 83.9% | viability, T/C [28]: 73.2% | viability, T/C [29]: 69.1% | viability, T/C [30]: 61.6% | viability, T/C [31]: 104% | viability, T/C [32]: 88.9% | viability, T/C [33]: 80.9% | viability, T/C [34]: 69.7% | viability, T/C [35]: 70.1% | viability, T/C [36]: 64.3%
